Assay results published in patent US20230047208A1, “RNA Splicing Modulation” (The General Hospital Corporation, priority 2020, published 2023).

Experiments:
CFTR channel = assay: CFTR functional assessment, short circuit current (Ussing chamber) in CFBE cells stably expressing c.2988G>A; type: cell-based, human
Text: (§1) WT CFTR-EMG-i14-i18, CFTR-EMG-i14-i18 harboring c.2988G>A, Flp-In-CFBE, and Flp-In-293 cells stably expressing WT-EMG and c.2988G>A EMG were generated. Both Flpin-293 and Flp-In-CFBE cells lack endogenous CFTR expression (CFBE41o-) and contain a single Flp recombinase target site. Co-transfection of EMG plasmid with pOG44 (a plasmid encoding Flp recombinase) allowed for genomic integration at the FRT site. Hygromycin was used for stable cell selection.
Assessment of CFTR channel function and response to Compound (I) was performed in CFBEs stably expressing c.2988G>A. Briefly, CFBE stable cell lines were plated on snapwell filters. When transepithelial resistance reached ˜200Ω (˜ 5-7 days) as measured using Voltammeter (Physiologic Instruments), cells were treated with Compound (I) at varying doses (0.3 μM to 10 μM) for next 3 days. Filters were mounted in Ussing chambers (Physiological Instruments). A high chloride solution was added to the basolateral chamber and a low chloride solution was added to the apical chamber. After equilibration of currents, 10 μM forskolin (Selleckchem) was added to the basolateral side to activate CFTR channels via cAMP signaling. Currents were allowed to plateau, followed by acute addition of 10 μM ivacaftor at apical side for CFTR potentiation (Selleckchem). Inhibition of CFTR was performed using 10 μM Inh-172 (Selleckchem) added to the apical chamber.
The ability of Compound (I) to rescue chloride channel function was also assessed. CF bronchial epithelial (CFBE) cell lines was generated to stably express the splicing mutation c.2988G>A. Cells were grown in monolayers on filters and treated with increasing doses of Compound (I) (0.3 μM-10 μM) or DMSO for 3 days. Chloride channel function was assessed by measuring short circuit current (Isc) on treated CFBE cells. Forskolin was added to initiate CFTR channel activity via cAMP-mediated signaling, with further channel activation by Ivacaftor and inhibition with Inh-172, a CFTR-specific inhibitor (FIG. 9C, representative Isc tracing). CFTR-specific change in current (ΔIsc±SD) allows for measurement of chloride channel function (FIG. 9C). […] Significant recovery of CFTR function (˜3 fold) was observed following treatment with Compound (I) at 1, 3, 6, and 10 μM for 3 days, with a maximal increase in CFTR function achieved using 3 μM of Compound (I) (ΔIsc=37.168±4.32 μA/cm^2, FIG. 9C).

CFTR protein = assay: CFTR western blot, mature CFTR protein in Flp-In-293 cells stably expressing c.2988G>A; type: cell-based, human; conditions: Flp-In-293 c.2988G>A stable cells, 60 μM, 5 days
Protocol: For CFTR WB, 40 μg of protein lysate was separated on 7.5% Criterion TGX protein gel (BioRad) and transferred to a PVDF membrane using a Trans-Blot Turbo Transfer System (BioRad). After blocking in 5% non-fat dry milk (BioRad), the membrane was probed with mouse monoclonal anti-CFTR antibody (1:5000 in PBST) that recognizes amino acids 1204-1211 (596, CFFT, North Carolina Chapel Hill). Rabbit monoclonal anti-Na+K+ ATPase (Abcam) (1:50,000 in PBST) was used as a loading control. Secondary antibodies were anti-mouse (1:150,000 GE Healthcare) and anti-rabbit (1:100,000 GE Healthcare), respectively. Blots were exposed on film using ECL Primer Western Blotting Detection Reagent (GE Healthcare)
as §1
CFTR protein levels was assessed in Flp-In-293 cells stably expressing the c.2988G>A splicing variant after treatment with Compound (I) for 5 days. […]

CFTR c.2988G>A = assay: CFTR exon 18 inclusion, RT-PCR in Flp-In-293 stable cells expressing c.2988G>A CFTR-EMG-i14-i18; type: cell-based, human; conditions: Flp-In-293 c.2988G>A, 60 μM, 5 days
Protocol: HEK-293 cells stably transfected with the expression minigenes (EMGs) for the full-length coding sequence and flanking intron sequence of the Cystic Fibrosis Transmembrane Conductance Regulator (CFTR) (courtesy of Dr. Garry R. Cutting, Johns Hopkins University school of Medicine, Baltimore, Md.) were cultured in D-MEM supplemented with 10% FBS (FBS), 1% penicillin/streptomycin and 0.1 mg/mL Hygromycin (SIGMA).
After treatment, the cells were collected and RNA was extracted with QIAzol Lysis Reagent (79306, Qiagen) following the manufacturer's instructions. The yields of the total RNA for each sample were determined using a Nanodrop ND-1000 spectrophotometer. […]
Ratios between isoforms having the middle exon included or excluded were obtained using the integrated density value (IDV) for each correspondent band, and then assessed using Alpha 2000™ Image Analyzer and quantified by ImageJ software. The level of exon inclusion was calculated as previously described^4, where the relative density value of the band represents inclusion and is expressed as a percentage. Validation of the semi-quantitative RT-PCR method for the measurement of exon inclusion was performed using RT-qPCR^4. […]

ELP1 = assay: In vivo ELP1 splicing correction in humanized transgenic mouse model

Clc1nc(NCc2ccncc2)c2cc[nH]c2n1 [Compound (I), 2-chloro-N-(pyridin-4-ylmethyl)-7H-pyrrolo[2,3-d]pyrimidin-4-amine]
CFTR-specific change in current ΔIsc (±SD) (CFTR channel; CFBE c.2988G>A, 3 μM, 3 days (maximal increase)): 37.168±4.32 μA/cm^2 | recovery of CFTR function (CFTR channel; CFBE c.2988G>A, 1, 3, 6 and 10 μM, 3 days, versus DMSO): ~3 fold | chloride channel function (CFTR channel; CFBE c.2988G>A, Compound (I) in combination with Ivacaftor): ~30 % of WT | chloride channel function (CFTR channel; CFBE c.2988G>A, Compound (I) treatment alone): ~20 % of WT | amount of mature CFTR protein (CFTR protein): ~20 % of WT | increase of CFTR exon 18 inclusion (CFTR c.2988G>A): 10% | ELP1 protein in tissues (ELP1): increase of ELP1 protein in all tissues, including the brain
